Experimental findings from paper PMC4145624, “Simultaneous purification of nitrile hydratase and amidase of Alcaligenes sp. MTCC 10674” (3 Biotech, 2013) are described below.

Molecules are shown by their SMILES.

Experiment [1] concerns T1, Nitrile hydratase (Nhase).
T1 construct: gene nthA; native, purified from Alcaligenes sp; MTCC 10674 cells (DEAE-Sepharose); heterodimer of 24 and 21 kDa, 47 kDa by native PAGE
As to the kind of experiment: acrylamide formation at […] nm. Format: biochemical, Alcaligenes sp. MTCC 10674. The settings on record: sodium phosphate buffer 0.125 M, pH 8.0, 15 °C (standard assay).

In a further experiment the test system is T2, Amidase.
T2 construct: native, purified from Alcaligenes sp; MTCC 10674 cells (DEAE-Sepharose, Sephacryl S-100); dimer of 52 and 49 kDa, 114 kDa by native PAGE
Kind of experiment: ammonia release assay. Format: biochemical, Alcaligenes sp. MTCC 10674. Conditions: sodium phosphate buffer 0.075 M, pH 8.0, 45 °C (standard assay); substrate named, not in the Km sentence.

As to `C=CC#N` [acrylonitrile], the Km (as a rule, the substrate concentration at which the rate is half of its maximum) in experiment [1] worked out at 40 mM.

Regarding `CCC(N)=O` [propionamide], in the experiment with Amidase, the Km was found to be 45.5 mM.
